According to US9708279B2, “2-acylaminothiazoles for the treatment of cancer” (UNIVERSITA′ DEGLI STUDI DI MILANO-BICOCCA, priority 2013, dated 2017):
pIC50: −log10 of the molar value. Where two headings read alike, the source gives them in different places.

Assays:
[1] = test system: parental untransformed BaF3 cells; assay: Tritiated thymidine uptake cell proliferation assay, parental BaF3; format: cell-based; conditions: Mus musculus
Experimental: (§1) Tritiated Thymidine Uptake Cell Proliferation Assay
The parent untransformed BaF3 cells and ALK-negative cells are used as controls. Cells are seeded in U-bottomed 96-well plates at 10 000 cells/well in a volume of 100 μL in supplemented medium. In the case of the parent untransformed BaF3 cells, the medium is supplemented with IL-3. Serial dilutions of inhibitors are added to the appropriate wells and volumes adjusted to 200 μL. Controls were treated with the equivalent volume of vehicle, DMSO, alone. Plates are incubated at 37° C. for 72 h. ^3[H]-thymidine (1 μCiCi/well) is added for the last 8 h of incubation. Cells are harvested on to paper filters and ^3[H]-thymidine incorporation is measured using a β scintillation counter (1430 MicroBeta, Wallac, Turku, Finland). The 50% inhibitory concentration (IC50) is defined as the concentration of inhibitor, expressed in micromolar, that give a 50% decrease in ^3[H]-thymidine uptake compared with controls.

[2] = test system: BaF3 cells transformed with the oncogenic fusion protein NPM/ALK; assay: Tritiated thymidine uptake cell proliferation assay, BaF3 NPM/ALK; format: cell-based; conditions: for pIC50: BaF3 NPM/ALK cells, 72 h, 3H-thymidine uptake, read-out: NPM/ALK WT IC50; for Selectivity Index (WT): parental BaF3 versus BaF3 NPM/ALK WT
Experimental: as §1
The parent untransformed BaF3 cells and ALK-negative cells are used as controls. Cells are seeded in U-bottomed 96-well plates at 10 000 cells/well in a volume of 100 μL in supplemented medium. In the case of the parent untransformed BaF3 cells, the medium is supplemented with IL-3. Serial dilutions of inhibitors are added to the appropriate wells and volumes adjusted to 200 μL. Controls were treated with the equivalent volume of vehicle, DMSO, alone. Plates are incubated at 37° C. for 72 h. ^3[H]-thymidine (1 μCiCi/well) is added for the last 8 h of incubation.

[3] = biological target: recombinant wild-type ALK kinase (rALK) (Homo sapiens (Human), UniProt Q9UM73); assay: ELISA-based in vitro kinase assay, wild-type ALK; format: biochemical; conditions: 0.3 mM ATP, read-out: ALK WT IC50
Chain of recombinant wild-type ALK kinase (rALK) (Q9UM73 19-1620): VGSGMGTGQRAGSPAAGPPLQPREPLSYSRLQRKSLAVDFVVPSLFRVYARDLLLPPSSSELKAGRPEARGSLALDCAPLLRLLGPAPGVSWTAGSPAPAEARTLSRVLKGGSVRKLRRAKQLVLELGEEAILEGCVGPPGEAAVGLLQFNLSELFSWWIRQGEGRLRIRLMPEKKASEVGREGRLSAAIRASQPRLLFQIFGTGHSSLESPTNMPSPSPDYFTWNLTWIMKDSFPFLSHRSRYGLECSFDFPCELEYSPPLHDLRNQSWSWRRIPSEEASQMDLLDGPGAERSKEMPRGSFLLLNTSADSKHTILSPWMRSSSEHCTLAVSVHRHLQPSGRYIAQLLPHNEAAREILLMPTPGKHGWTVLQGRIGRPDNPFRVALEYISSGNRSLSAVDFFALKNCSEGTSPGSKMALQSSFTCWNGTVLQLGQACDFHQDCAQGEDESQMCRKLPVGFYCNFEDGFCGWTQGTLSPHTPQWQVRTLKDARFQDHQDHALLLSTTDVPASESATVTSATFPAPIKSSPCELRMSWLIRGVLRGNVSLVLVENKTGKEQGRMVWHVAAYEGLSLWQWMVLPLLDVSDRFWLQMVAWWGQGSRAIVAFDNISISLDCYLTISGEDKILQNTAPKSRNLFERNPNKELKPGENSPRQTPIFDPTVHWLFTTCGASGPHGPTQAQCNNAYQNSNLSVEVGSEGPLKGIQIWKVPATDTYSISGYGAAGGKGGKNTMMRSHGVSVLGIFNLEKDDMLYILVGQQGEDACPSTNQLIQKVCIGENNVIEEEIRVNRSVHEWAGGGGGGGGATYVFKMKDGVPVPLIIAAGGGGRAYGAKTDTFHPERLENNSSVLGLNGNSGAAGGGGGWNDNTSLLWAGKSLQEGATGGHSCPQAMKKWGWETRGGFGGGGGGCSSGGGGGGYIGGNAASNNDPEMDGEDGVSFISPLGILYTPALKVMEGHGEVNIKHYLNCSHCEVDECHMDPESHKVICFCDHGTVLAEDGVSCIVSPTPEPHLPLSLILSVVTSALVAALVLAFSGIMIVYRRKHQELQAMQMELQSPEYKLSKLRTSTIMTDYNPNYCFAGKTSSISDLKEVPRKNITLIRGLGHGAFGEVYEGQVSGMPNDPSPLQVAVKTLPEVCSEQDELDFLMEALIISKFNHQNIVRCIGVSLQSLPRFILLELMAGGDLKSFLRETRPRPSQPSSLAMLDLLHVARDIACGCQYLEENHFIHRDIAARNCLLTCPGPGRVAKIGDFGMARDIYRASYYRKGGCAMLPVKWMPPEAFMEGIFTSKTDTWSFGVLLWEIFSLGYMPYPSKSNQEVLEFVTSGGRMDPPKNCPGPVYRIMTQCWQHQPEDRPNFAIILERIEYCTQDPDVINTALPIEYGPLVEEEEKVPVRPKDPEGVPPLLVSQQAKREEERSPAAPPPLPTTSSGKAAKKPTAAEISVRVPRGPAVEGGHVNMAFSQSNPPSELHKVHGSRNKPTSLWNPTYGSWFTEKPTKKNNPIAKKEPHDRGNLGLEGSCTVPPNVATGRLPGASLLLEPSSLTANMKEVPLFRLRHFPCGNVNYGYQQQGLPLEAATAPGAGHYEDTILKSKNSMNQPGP
Experimental: ELISA-Based in vitro Kinase Assay
GST-tagged recombinant wild-type or L1196M mutated ALK kinase (rALK) was expressed in Sf9 insect cells using the pBacPAK baculovirus vector system (Clontech) and purified using Glutathione Sepharose 4B affinity beads (GE Healthcare). Recombinant 3C protease was used to remove the GST tag. Purified ALK was used to screen inhibitors in the ELISA-based kinase assay, as follows: Nunc-Immuno 96-well plates were incubated overnight at 30° C. with coating solution containing 2 μg of a specific ALK peptide substrate ([sequence]) in PBS. Wells were then washed with 200 μL of wash buffer (PBS-Tween 0.05%) and incubated with 4% BSA in PBS for at least 2 h at 30° C. The kinase reaction was performed in the presence of 50 mM Tris pH 7.5, 5 mM MnCl2, 5 mM MgCl2, 0.3 mM ATP and purified rALK in a total volume of 100 μL/well at 30° C. for 15 min. For inhibitor testing the reaction mix was preincubated with inhibitor or vehicle for 10 min at room temperature before transferring to the ELISA plate. After the reaction, the wells were washed 5 times with 200 uL of wash buffer. Phosphorylated peptide was detected using 100 μL/well of a mouse monoclonal anti-phosphotyrosine antibody (clone 4G10 UpstateBiotech Ltd) diluted 1:2000 in PBS+4% BSA. After 30 min incubation at room temperature the antibody was removed and wells were washed as described above. 100 μL of a secondary antibody (anti-mouse IgG, Horseradish Peroxidase linked whole antibody, Amersham Pharmacia Biotech) diluted 1:1000 in PBS+4% BSA was added to each well and the plate was incubated again for 30 min at room temperature before washing as above. The plate was developed using 100 μL/well TMB Substrate Solution (Pierce) and the reaction was stopped by adding an equal volume of 1M H2SO4. Finally, the absorbance was read at 450 nm using an ELISA plate reader (Bio-Rad).

[4] = parental BaF3 cells (IL-3), 72 h, 3H-thymidine uptake, read-out: Parental IC50

In the case of `Cc1ccc(-c2csc(NC(=O)c3ccc(CN4CCN(C)CC4)cc3)n2)cc1C#Cc1ccc(F)cc1` [Example 9, N-(4-(3-((4-fluorophenyl)ethynyl)-4-methylphenyl)thiazol-2-yl)-4-((4-methylpiperazin-1-yl)methyl)benzamide], the pIC50 [1, 4] was 5.40, the pIC50 [2] was 5.64 and the “Selectivity Index (WT)” value [2] was 2. The pIC50 [3] was < 4.00.

`CC(C)[Si](C#Cc1cccc(-c2csc(NC(=O)c3ccc(CNCCN(C)C)cc3)n2)c1)(C(C)C)C(C)C` [Example 44, 4-(((2-(dimethylamino)ethyl)amino)methyl)-N-(4-(3-((triisopropylsilyl)ethynyl)phenyl)thiazol-2-yl)benzamide] was tested, and the pIC50 [1, 4] was 5.11, the pIC50 [2] was 5.29 and the pIC50 [3] was < 4.00.

`O=C(Nc1nc(-c2cccc(C#Cc3cc(C(F)(F)F)cc(C(F)(F)F)c3)c2)cs1)c1ccc(CN2CCOCC2)cc1` [Example 39, N-(4-(3-((3,5-bis(trifluoromethyl)phenyl)ethynyl)phenyl)thiazol-2-yl)-4-(morpholinomethyl)benzamide] was tested, and the pIC50 [1, 4] was 4.48, the pIC50 [2] was 5.05 and the “Selectivity Index (WT)” value [2] was 4. For the same compound, the pIC50 [3] was < 4.00.

In the case of `CN1CCN(C(=O)c2ccc(-c3ccc(C(=O)Nc4nc(-c5cccc(C#Cc6ccccc6OC(F)(F)F)c5)cs4)o3)cc2)CC1` [Example 43, 5-(4-(4-methylpiperazine-1-carbonyl)phenyl)-N-(4-(3-((2-(trifluoromethoxy)phenyl)ethynyl)phenyl)thiazol-2-yl)furan-2-carboxamide], the pIC50 [1, 4] was 5.35, the pIC50 [2] was 5.31 and the “Selectivity Index (WT)” value [2] was 1. The pIC50 [3] was < 4.00.

For `CN1CCN(C(=O)c2ccc(-c3ccc(C(=O)Nc4nc(-c5cccc(C#Cc6cc(C(F)(F)F)cc(C(F)(F)F)c6)c5)cs4)o3)cc2)CC1` [Example 34, N-(4-(3-((3,5-bis(trifluoromethyl)phenyl)ethynyl)phenyl)thiazol-2-yl)-5-(4-(4-methylpiperazine-1-carbonyl)phenyl)furan-2-carboxamide], the pIC50 [1, 4] was 5.40, the pIC50 [2] was 5.72 and the “Selectivity Index (WT)” value [2] was 2. For the same compound, the pIC50 [3] was < 4.00.

`COc1ccc(C#Cc2cc(-c3csc(NC(=O)c4ccc(CN5CCN(C)CC5)cc4)n3)ccc2C)cc1` [Example 6, N-(4-(3-((4-methoxyphenyl)ethynyl)-4-methylphenyl)thiazol-2-yl)-4-((4-methylpiperazin-1-yl)methyl)benzamide] was tested, and the pIC50 [1, 4] was 5.18, the pIC50 [2] was 5.68 and the “Selectivity Index (WT)” value [2] was 3. For the same compound, the pIC50 [3] was < 4.00.

With `Cc1cc(-c2csc(NC(=O)c3ccc(CN4CCN(C)CC4)cc3)n2)ccc1C#Cc1ccccc1C(F)(F)F` [Example 11, N-(4-(3-methyl-4-((2-(trifluoromethyl)phenyl)ethynyl)phenyl)thiazol-2-yl)-4-((4-methylpiperazin-1-yl)methyl)benzamide] the pIC50 ([1]; BaF3, read-out: Parental IC50) was 5.49.

Compound `CN1CCN(Cc2ccc(C(=O)Nc3nc(-c4cccc(C#Cc5ccccc5F)c4)cs3)cc2)CC1` [Example 31, N-(4-(3-((2-fluorophenyl)ethynyl)phenyl)thiazol-2-yl)-4-((4-methylpiperazin-1-yl)methyl)benzamide] has a pIC50 ([1]; BaF3, read-out: Parental IC50) of 5.66.

With `COc1ccc(C#Cc2cccc(-c3csc(NC(=O)c4ccc(CN5CCN(C)CC5)cc4)n3)c2)cc1` [Example 3, N-(4-(3-((4-methoxyphenyl)ethynyl)phenyl)thiazol-2-yl)-4-((4-methylpiperazin-1-yl)methyl)benzamide] the pIC50 ([1]; BaF3, read-out: Parental IC50) was 5.64.

In the case of `CC(C)(C)[Si](C#Cc1cccc(-c2csc(NC(=O)c3ccc(CN4CCOCC4)cc3)n2)c1)(c1ccccc1)c1ccccc1` [Example 41, N-(4-(3-((tert-butyldiphenylsilyl)ethynyl)phenyl)thiazol-2-yl)-4-(morpholinomethyl)benzamide], the pIC50 ([1]; BaF3, read-out: Parental IC50) was < 4.30.

In the case of `CC(C)[Si](C#Cc1cccc(-c2csc(NC(=O)c3ccc(CN4CCOCC4)cc3)n2)c1)(C(C)C)C(C)C` [Example 38, 4-(morpholinomethyl)-N-(4-(3-((triisopropylsilyl)ethynyl)phenyl)thiazol-2-yl)benzamide], the pIC50 ([1]; BaF3, read-out: Parental IC50) was < 4.30.

`CN1CCN(Cc2ccc(C(=O)Nc3nc(-c4cccc(C#CC5=CCCCC5)c4)cs3)cc2)CC1` [Example 19, N-(4-(3-(cyclohex-1-en-1-ylethynyl)phenyl)thiazol-2-yl)-4-((4-methylpiperazin-1-yl)methyl)benzamide] gave a pIC50 ([1]; BaF3, read-out: Parental IC50) of 6.31.

`Cc1ccc(C#Cc2ccc(-c3csc(NC(=O)c4ccc(CN5CCN(C)CC5)cc4)n3)cc2C)cc1` [Example 10, N-(4-(3-methyl-4-(p-tolylethynyl)phenyl)thiazol-2-yl)-4-((4-methylpiperazin-1-yl)methyl)benzamide] was tested, and the pIC50 ([1]; BaF3, read-out: Parental IC50) was 5.52.

Compound `CN1CCN(Cc2ccc(C(=O)Nc3nc(-c4cccc(C#C[Si](c5ccccc5)(c5ccccc5)C(C)(C)C)c4)cs3)cc2)CC1` [Example 25, N-(4-(3-((tert-butyldiphenylsilyl)ethynyl)phenyl)thiazol-2-yl)-4-((4-methylpiperazin-1-yl)methyl)benzamide] has a pIC50 ([1]; BaF3, read-out: Parental IC50) of 4.92.

`CN1CCN(Cc2ccc(C(=O)Nc3nc(-c4cccc(C#CCO[Si](C)(C)C(C)(C)C)c4)cs3)cc2)CC1` [Example 23, N-(4-(3-(3-((tert-butyldimethylsilyl)oxy)prop-1-yn-1-yl)phenyl)thiazol-2-yl)-4-((4-methylpiperazin-1-yl)methyl)benzamide] gave a pIC50 ([1]; BaF3, read-out: Parental IC50) of 5.23.

`Cc1ccc(C#Cc2cccc(-c3csc(NC(=O)c4ccc(CN5CCN(C)CC5)cc4)n3)c2)cc1` [Example 2, 4-((4-methylpiperazin-1-yl)methyl)-N-(4-(3-(p-tolylethynyl)phenyl)thiazol-2-yl)benzamide] showed a pIC50 ([1]; BaF3, read-out: Parental IC50) of 5.26.

`CN1CCN(Cc2ccc(C(=O)Nc3nc(-c4cccc(C#CCO[Si](c5ccccc5)(c5ccccc5)C(C)(C)C)c4)cs3)cc2)CC1` [Example 21, N-(4-(3-(3-((tert-butyldiphenylsilyl)oxy)prop-1-yn-1-yl)phenyl)thiazol-2-yl)-4-((4-methylpiperazin-1-yl)methyl)benzamide] was tested, and the pIC50 ([1]; BaF3, read-out: Parental IC50) was 4.92.

For `CC(C)[Si](C#Cc1ccc(-c2csc(NC(=O)c3ccc(CN4CCN(C)CC4)cc3)n2)cc1C#C[Si](C(C)C)(C(C)C)C(C)C)(C(C)C)C(C)C` [Example 16, N-(4-(3,4-bis((triisopropylsilyl)ethynyl)phenyl)thiazol-2-yl)-4((4-methylpiperazin-1-yl)methyl)benzamide], the pIC50 ([1]; BaF3, read-out: Parental IC50) was < 4.30.

Work on `CN1CCN(Cc2ccc(C(=O)Nc3nc(-c4cccc(C#CCOC(c5ccccc5)(c5ccccc5)c5ccccc5)c4)cs3)cc2)CC1` [Example 30, 4-((4-methylpiperazin-1-yl)methyl)-N-(4-(3-(3-(trityloxy)prop-1-yn-1-yl)phenyl)thiazol-2-yl)benzamide] yielded a pIC50 ([1]; BaF3, read-out: Parental IC50) of 5.00.
